Source: patent US20260256779A1, “PYRIDAZIN-3-CARBOXAMIDE COMPOUND AS TYK2 INHIBITOR” (Guangzhou Fermion Technology Co., Ltd., priority 2022, published 2026)

How the values were obtained:
[1] = biological target: T1, TYK2 JH2 pseudokinase (Homo sapiens, UniProt P29597); test: TYK2 JH2 in vitro enzyme binding assay (TR-FRET); settings: 60 min at room temperature
T1 construct: 5 μL of 3×TYK2 JH2 kinase (Bioduro); purchased Bioduro
Experimental: Purpose: The purpose of this test example was to use a fluorescence resonance energy transfer (TR-FRET) method to test the binding effect of the compound on a TYK2 JH2 pseudokinase, and then evaluate the affinity of the compound for TYK2 JH2.
DMSO-dissolved compounds were used to prepare 10 mM stock solutions, then 200× compounds having different gradient concentrations were prepared in a compound dilution plate, and transferred to an Echo plate. 75 nL of the compounds were transferred from the Echo plate to a 384-well assay plate using an Echo instrument, and 5 μL of 3×TYK2 JH2 kinase (Bioduro), 5 μL of 3× Tb antibody (Cisbio) and 5 μL of 3×TRACER (Bioduro) were added to the 384-well assay plate, centrifuged for 30 seconds, and incubated at room temperature for 60 minutes. A 495 nm/520 nm fluorescence signal ratio was read by an Envision microplate reader (PerkinElmer), and data was analyzed using XL-Fit software to calculate the IC50 of the compound.

[2] = tested on: IL-2-induced CD3+ pSTAT5 (JAK1/3) in hPBMC; test: IL-2-induced STAT5 phosphorylation (JAK1/3) in CD3+ cell subpopulations in human PBMC, flow cytometry; type: cell-based; settings: CD3+ cells, IL-2 stimulation
Experimental: Purpose: The purpose of this test example was to test the inhibitory effect of the compound on IL-2-induced STAT5 phosphorylation using protein phosphorylation flow cytometric analysis technology.
Human PBMC cells were pre-incubated with the compounds, STAT5 was induced to phosphorylate under appropriate stimulation conditions, and corresponding cell subpopulations and targets were stained. Flow cytometry was used to read cell data and analyze the strength of phosphorylated antibody signals under different compound concentrations. PBMCs were resuspended and dispensed into a 96-well plate, 62.5 μL/well. 3.5 μL of 20× compound working solutions were added and incubated at 37° C. for 30 minutes. 5 μL of PE Mouse Anti-Human CD3 (BD) was added and incubated at 37° C. in the dark for 30 minutes. 4 μL of 20× IL-2 (R&D) was added to each well and incubated at 37° C. in the dark for 20 minutes. All cells in the 96-well plate were transferred to a deep-well plate, 400 μL of a fixation working solution (Biolegend) was added to each well, and incubated at room temperature in the dark for 20 minutes. The cells were washed twice with PBS, and 400 μL of Perm Buffer III (BD) was added and incubated at 4° C. in the dark for 40 minutes. The cells were washed twice with PBS, and 100 μL of a STAT5 pY694 antibody working solution (BD) was added and incubated at room temperature for 40 minutes. After washing once with PBS, the cells were resuspended in 200 μL of a staining buffer and transferred to a sample plate. The antibody fluorescence intensity was analyzed using FlowJo software, and the IC50 of the compound was calculated using XL-Fit software.

[3] = Pharmacokinetic evaluation by intravenous injection or oral gavage in mice; type: in vivo; settings: ICR mice; for AUC(0-t) / Cmax / Tmax / half-life / clearance / Vd: mouse, plasma; for Vd: read-out: Vz
Experimental: The inventors evaluated the pharmacokinetic properties of the compound of the present invention in mice.
The compound of the present invention was administered to the test animals in the form of 5% DMA+5% Solutol+90% saline or 5% ethanol+5% TPGS+90% PEG300 solvent. The animals were fasted for 12 hours before administration and had free access to water. For the intravenous administration group, the dose was 1 mg/kg. The drug was administered by intragastric administration at a dose of 10 mg/kg. After the drug administration, blood was intravenously drawn from the animals at the following time points (blood volume was approximately 0.3 mL): 0.083, 0.25, 0.5, 1.0, 2.0, 4.0, 8.0 and 24 h. EDTA-K2 was pre-added to blood collection tubes as an anticoagulant, and the blood samples were centrifuged at 6800 g for 6 min to collect plasma, which was then stored at −80° C.
Sample preparation for LC-MS/MS assay: 15 μL of plasma samples was used for protein precipitation with 300 μL of methanol containing 100 ng/mL IS (IS was tolbutamide). The mixture was vortexed for 1 min and then centrifuged at 18000 g for 10 min. 300 μL of the supernatant was transferred to a 96-well plate. 2 μL of the supernatant was subjected to LC-MS/MS analysis.

[4] = intragastric administration, 10 mg/kg
[5] = po, intragastric administration, 10 mg/kg
[6] = intravenous administration, 1 mg/kg

T1 sequence (P29597 589-875 limits assumed): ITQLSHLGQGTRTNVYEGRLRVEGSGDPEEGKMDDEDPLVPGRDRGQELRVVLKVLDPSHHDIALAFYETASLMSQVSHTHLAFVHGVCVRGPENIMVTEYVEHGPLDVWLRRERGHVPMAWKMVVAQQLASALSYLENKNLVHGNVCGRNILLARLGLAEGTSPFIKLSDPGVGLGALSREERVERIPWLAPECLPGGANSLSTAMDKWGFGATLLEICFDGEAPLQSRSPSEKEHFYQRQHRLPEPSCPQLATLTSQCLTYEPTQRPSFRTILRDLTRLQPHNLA

## CCONC(=O)c1nnc(NC(=O)C2CC2)cc1Nc1cc(F)cc(-c2ncn(C)n2)c1OC [Compound 4, 6-(Cyclopropylcarboxamido)-N-ethoxy-4-((5-fluoro-2-methoxy-3-(1-methyl-1H-1,2,4-triazol-3-yl)phenyl)amino)pyridazine-3-carboxamide]
[1]
  IC50: 0.2 nM

## CCONC(=O)c1nnc(NC(=O)C2CC2)cc1Nc1cc(F)cc(-c2ncn(C3CC3)n2)c1OC [Compound 8, 6-(Cyclopropylcarboxamido)-4-((3-(1-cyclopropyl-1H-1,2,4-triazol-3-yl)-5-fluoro-2-methoxyphenyl)amino)-N-ethoxypyridazine-3-carboxamide]
[1]
  IC50: 0.33 nM

## CONC(=O)c1nnc(NC(=O)C2CC2)cc1Nc1cccc(-c2ncn(C)n2)c1OC [Compound 1, 6-(Cyclopropylcarboxamido)-N-methoxy-4-((2-methoxy-3-(1-methyl-1H-1,2,4-triazol-3-yl)phenyl)amino)pyridazine-3-carboxamide]
[1]
  IC50: 0.17 nM

## [2H]C([2H])([2H])ONC(=O)c1nnc(NC(=O)C2CC2)cc1Nc1cccc(-c2ncn(C)n2)c1OC [Compound 14, 6-(Cyclopropylcarboxamido)-N-(methoxy-d3)-4-((2-methoxy-3-(1-methyl-1H-1,2,4-triazol-3-yl)phenyl)amino)pyridazine-3-carboxamide]
[1]
  IC50: 0.27 nM

## BMS-986165 [reference compound]
[2]
  IC50: 409 nM

## [2H]C([2H])([2H])n1cnc(-c2cccc(Nc3cc(NC(=O)C4CC4)nnc3C(=O)NOCC)c2OC)n1 [Compound 5, 6-(Cyclopropylcarboxamido)-N-ethoxy-4-((2-methoxy-3-(1-(methyl-d3)-1H-1,2,4-triazol-3-yl)phenyl)amino)pyridazine-3-carboxamide]
[1]
  IC50: 0.26 nM

## CCONC(=O)c1nnc(NC(=O)C2CC2)cc1Nc1cccc(-c2ncn(C)n2)c1OC [Compound 3, 6-(Cyclopropylcarboxamido)-N-ethoxy-4-((2-methoxy-3-(1-methyl-1H-1,2,4-triazol-3-yl)phenyl)amino)pyridazine-3-carboxamide]
[1]
  IC50: 0.13 nM

## CONC(=O)c1nnc(Nc2cccc(C#N)n2)cc1Nc1cccc(-c2ncn(C)n2)c1OC [Compound 2, 6-((6-cyanopyridin-2-yl)amino)-N-methoxy-4-((2-methoxy-3-(1-methyl-1H-1,2,4-triazol-3-yl)phenyl)amino)pyridazine-3-carboxamide]
[1]
  IC50: 0.16 nM

## CCONC(=O)c1nnc(NC(=O)C2CC2)cc1Nc1cccc(-c2ncn(C3CC3)n2)c1OC [Compound 7, 6-(Cyclopropylcarboxamido)-4-((3-(1-cyclopropyl-1H-1,2,4-triazol-3-yl)-2-methoxyphenyl)amino)-N-ethoxypyridazine-3-carboxamide]
[1]
  IC50: 0.17 nM
[3]; [4]
  F: 29.09%
[3]; [5]
  AUC(0-t): 7850 ng·h/mL
  Cmax: 3460 ng/mL
  Tmax: 0.83 h
  half-life: 3.75 h
[3]; [6]
  AUC(0-t): 2700 ng·h/mL
  Cmax: 3620 ng/mL
  Tmax: 0.08 h
  clearance: 6.13 mL/min/kg
  half-life: 1.51 h
  Vd: 0.81 L/kg
[2]
  IC50: > 30000 nM

## [2H]C([2H])([2H])C([2H])([2H])ONC(=O)c1nnc(NC(=O)C2CC2)cc1Nc1cccc(-c2ncn(C3CC3)n2)c1OC [Compound 17, 6-(Cyclopropylcarboxamido)-4-((3-(1-cyclopropyl-1H-1,2,4-triazol-3-yl)-2-methoxyphenyl)amino)-N-(ethoxy-d5)pyridazine-3-carboxamide]
[1]
  IC50: 0.19 nM
[3]; [4]
  F: 94.13%
[3]; [5]
  AUC(0-t): 17500 ng·h/mL
  Cmax: 5640 ng/mL
  Tmax: 0.67 h
  half-life: 5.03 h
[3]; [6]
  AUC(0-t): 1860 ng·h/mL
  Cmax: 3400 ng/mL
  Tmax: 0.08 h
  clearance: 9.13 mL/min/kg
  half-life: 3.61 h
  Vd: 2.77 L/kg
[2]
  IC50: > 30000 nM

## [2H]C([2H])([2H])C([2H])([2H])ONC(=O)c1nnc(NC(=O)C2CC2)cc1Nc1cccc(-c2ncn(C)n2)c1OC [Compound 15, 6-(Cyclopropylcarboxamido)-N-(ethoxy-d5)-4-((2-methoxy-3-(1-methyl-1H-1,2,4-triazol-3-yl)phenyl)amino)pyridazine-3-carboxamide]
[1]
  IC50: 0.14 nM

## [2H]C([2H])([2H])Oc1c(Nc2cc(NC(=O)C3CC3)nnc2C(=O)NOCC)cccc1-c1ncn(C2CC2)n1 [Compound 9, 6-(Cyclopropylcarboxamido)-4-((3-(1-cyclopropyl-1H-1,2,4-triazol-3-yl)-2-(methoxy-d3)phenyl)amino)-N-ethoxypyridazine-3-carboxamide]
[1]
  IC50: 0.22 nM
[3]; [4]
  F: 72.48%
[3]; [5]
  AUC(0-t): 20100 ng·h/mL
  Cmax: 9220 ng/mL
  Tmax: 0.67 h
  half-life: 4.64 h
[3]; [6]
  AUC(0-t): 2780 ng·h/mL
  Cmax: 3730 ng/mL
  Tmax: 0.08 h
  clearance: 6.09 mL/min/kg
  half-life: 4.3 h
  Vd: 1.8 L/kg
[2]
  IC50: > 30000 nM

## [2H]C([2H])([2H])n1cnc(-c2cc(F)cc(Nc3cc(NC(=O)C4CC4)nnc3C(=O)NOCC)c2OC)n1 [Compound 6, 6-(Cyclopropylcarboxamido)-N-ethoxy-4-((5-fluoro-2-methoxy-3-(1-(methyl-d3)-1H-1,2,4-triazol-3-yl)phenyl)amino)pyridazine-3-carboxamide]
[1]
  IC50: 0.3 nM

## [2H]C([2H])([2H])ONC(=O)c1nnc(NC(=O)C2CC2)cc1Nc1cccc(-c2ncn(C3CC3)n2)c1OC [Compound 16, 6-(Cyclopropanamido)-4-((3-(1-cyclopropyl-1H-1,2,4-triazol-3-yl)-2-methoxyphenyl)amino)-N-(methoxy-d3)pyridazine-3-carboxamide]
[1]
  IC50: 0.29 nM
